Where two headings read alike, the source gives them in different places. Where a SMILES comes first, the peptide text is derived from it. [ ]: non-standard residue; d: D form.
Tests used:
MDRST 8007 = test: Minimal inhibitory concentration (MIC), single agent; format: cell-based, Salmonella typhimurium; details: agent alone
Outline: (§1)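 Peptides were serially diluted twofold in Mueller-Hinton medium and combined 1:1 with bacterial suspensions prepared at 2×10^6 CFU. Readout was the minimal inhibitory concentration, i.e. the lowest concentration with no growth.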

P. aeruginosa = test: microbe, parasite or virus in culture; format: cell-based, Pseudomonas aeruginosa
Outline: as §1

E. coli [1] = format: cell-based, Escherichia coli; details: E. coli
Outline: (§2)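 Broth microdilution in MH medium; strains were diluted to 2×10^6 CFU per ml before plating. Peptide was serially diluted stepwise at 2:1 starting from its MIC, and MH-diluted antibiotic was then added to determine MIC. The reversed arrangement was also tested.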

MDREC 1229 [2] = format: cell-based, Escherichia coli
Outline: as §2

MDRST 8009 = format: cell-based, Salmonella typhimurium; details: agent alone
Outline: as §1

E. coli [3] = test: MIC of antibiotic during combined treatment with antimicrobial peptide; format: cell-based, Escherichia coli; details: for Antibiotic MIC, Erythromycin / Antibiotic MIC, Linezolid / Antibiotic MIC, Vancomycin: E. coli
Outline: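 First, antibiotic solution is diluted with MH medium; next, the dilution is dispensed into wells containing peptide; finally, the orientation is swapped and MIC of each mixture determined.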

E. coli [4] = test: microbe, parasite or virus in culture; format: cell-based, Escherichia coli; details: 16 h
Outline: as §1

MDREC 1229 [5] = test: microbe, parasite or virus in culture; format: cell-based, Escherichia coli
Outline: as §1

B. subtilis = test: microbe, parasite or virus in culture; format: cell-based, Bacillus subtilis
Outline: as §1

MDRPA 2002 = format: cell-based, Pseudomonas aeruginosa
Outline: as §1

MDRPA 2003 = format: cell-based, Pseudomonas aeruginosa
Outline: as §1

MRSA 3114 = format: cell-based, Staphylococcus aureus; details: 3114
Outline: as §1

MRSA 3126 = format: cell-based, Staphylococcus aureus; details: 3126
Outline: as §1

A. baumannii = test: MIC of antimicrobial peptide during combined treatment with antibiotic; format: cell-based, Acinetobacter baumannii
Outline: as §2

MDRAB 12035 [6] = test: as above; format: cell-based, Acinetobacter baumannii
Outline: as §2

S. epidermidis = test: microbe, parasite or virus in culture; format: cell-based, Staphylococcus epidermidis
Outline: as §1

MDREC 1238 = format: cell-based, Escherichia coli
Outline: as §1

MDRAB 12035 [7] = test: MIC of antibiotic during combined treatment with antimicrobial peptide; format: cell-based, Acinetobacter baumannii
Outline: as §2

MDRAB 12036 = format: cell-based, Acinetobacter baumannii
Outline: as §1

[8] = linezolid 64 μg/ml (Conc./MIC 1/8)
[9] = linezolid 512 μg/ml (Conc./MIC 1)
[10] = vancomycin 512 μg/ml (Conc./MIC 1/2)
[11] = vancomycin 1024 μg/ml (Conc./MIC 1)
[12] = erythromycin 4 μg/ml (Conc./MIC 1/8)
[13] = erythromycin 8 μg/ml (Conc./MIC 1/4)
[14] = erythromycin 16 μg/ml (Conc./MIC 1/2)
[15] = erythromycin 32 μg/ml (Conc./MIC 1)
[16] = peptide treatment concentration 1 μg/ml
[17] = peptide treatment concentration 2 μg/ml
[18] = peptide treatment concentration 4 μg/ml
[19] = peptide treatment concentration 6 μg/ml
[20] = peptide treatment concentration 8 μg/ml
[21] = peptide treatment concentration 16 μg/ml
[22] = peptide treatment concentration 32 μg/ml
[23] = peptide treatment concentration 64 μg/ml

CC[C@H](C)[C@H](NC(=O)[C@H](CCCCN)NC(=O)[C@H](Cc1c[nH]c2ccccc12)NC(=O)[C@@H](N)CCCNC(=N)N)C(=O)N[C@@H](Cc1ccccc1)C(=O)N[C@@H](CCCCN)C(=O)N[C@@H](CCCCN)C(=O)N[C@H](C(=O)N[C@H](CCCCN)C(=O)N[C@@H](CCCCN)C(=O)N[C@@H](CC(C)C)C(=O)N[C@@H](CC(C)C)C(=O)N[C@@H](Cc1c[nH]cn1)C(=O)N[C@@H](CCC(=O)O)C(=O)N[C@@H](Cc1ccccc1)C(=O)N[C@@H](CCCCN)C(=O)N[C@@H](CCCCN)C(=O)N[C@@H](Cc1ccccc1)C(N)=O)[C@@H](C)CC [PapMA-19, RWK IFK KIk KLL HEF KKF-NH2] (H-RWKIFKKI[dK]KLLHEFKKF-NH2; N-terminus assumed)
0.125 mg/L: Erythromycin MIC during combined treatment with peptide (MDRAB 12035 [7]; [21])
8 mg/L: Antibiotic MIC, Erythromycin (E. coli [3]; erythromycin combined with peptide at 4 μg/ml) | Antibiotic MIC, Linezolid (E. coli [3]; linezolid combined with peptide at 6 μg/ml) | Antibiotic MIC, Linezolid (E. coli [3]; linezolid combined with peptide at 8 μg/ml) | Antibiotic MIC, Vancomycin (E. coli [3]; vancomycin combined with peptide at 6 μg/ml) | Antibiotic MIC, Vancomycin (E. coli [3]; vancomycin combined with peptide at 8 μg/ml) | Erythromycin MIC during combined treatment with peptide (MDRAB 12035 [7]; [18]) | Linezolid MIC during combined treatment with peptide (MDRAB 12035 [7]; [20]) | Vancomycin MIC during combined treatment with peptide (MDRAB 12035 [7]; [21])
4 mg/L: Peptide MIC during treatment with antibiotic (MDREC 1229 [2]; [8]) | Peptide MIC during treatment with antibiotic (MDREC 1229 [2]; vancomycin […] (Conc./MIC 1/4)) | Peptide MIC during treatment with antibiotic (MDREC 1229 [2]; vancomycin […] (Conc./MIC 1/8)) | Antibiotic MIC, Linezolid (E. coli [3]; linezolid combined with peptide at 16 μg/ml) | Antibiotic MIC, Vancomycin (E. coli [3]; vancomycin combined with peptide at 16 μg/ml) | Peptide MIC during treatment with antibiotic (A. baumannii; [12]) | Peptide MIC during treatment with antibiotic (A. baumannii; [13]) | Peptide MIC during treatment with antibiotic (A. baumannii; linezolid 32 μg/ml (Conc./MIC 1/8)) | Peptide MIC during treatment with erythromycin (MDRAB 12035 [6]; [12]) | Peptide MIC during treatment with erythromycin (MDRAB 12035 [6]; [13]) | Peptide MIC during treatment with linezolid (MDRAB 12035 [6]; [8]) | Linezolid MIC during combined treatment with peptide (MDRAB 12035 [7]; [21])
0.5 mg/L: Peptide MIC during treatment with antibiotic (A. baumannii; vancomycin […] (Conc./MIC 1/4)) | Erythromycin MIC during combined treatment with peptide (MDRAB 12035 [7]; [20])
1 mg/L: Peptide MIC during treatment with antibiotic (MDREC 1229 [2]; erythromycin […] (Conc./MIC 1/2)) | Peptide MIC during treatment with antibiotic (MDREC 1229 [2]; linezolid […] (Conc./MIC 1/2)) | Peptide MIC during treatment with antibiotic (MDREC 1229 [2]; [11]) | Antibiotic MIC, Erythromycin (E. coli [3]; erythromycin combined with peptide at 8 μg/ml) | Peptide MIC during treatment with antibiotic (A. baumannii; linezolid […] (Conc./MIC 1/2)) | Peptide MIC during treatment with linezolid (MDRAB 12035 [6]; linezolid […] (Conc./MIC 1/2)) | Peptide MIC during treatment with vancomycin (MDRAB 12035 [6]; [11])
32 mg/L: Antibiotic MIC, Erythromycin (E. coli [3]; erythromycin combined with peptide at 2 μg/ml) | Antibiotic MIC, Linezolid (E. coli [3]; linezolid combined with peptide at 4 μg/ml) | Minimal inhibitory concentration MIC (E. coli [4]) | Minimal inhibitory concentration MIC (MDREC 1229 [5]) | Peptide MIC, peptide alone (MDREC 1229 [5]) | Minimal inhibitory concentration MIC (MDREC 1238) | Erythromycin MIC during combined treatment with peptide (MDRAB 12035 [7]; [16]) | Vancomycin MIC during combined treatment with peptide (MDRAB 12035 [7]; [19]) | Minimal inhibitory concentration MIC (MDRAB 12036)
2 mg/L: Peptide MIC during treatment with antibiotic (MDREC 1229 [2]; erythromycin 32 μg/ml (Conc./MIC 1/8)) | Peptide MIC during treatment with antibiotic (MDREC 1229 [2]; erythromycin 64 μg/ml (Conc./MIC 1/4)) | Peptide MIC during treatment with antibiotic (MDREC 1229 [2]; linezolid […] (Conc./MIC 1/4)) | Peptide MIC during treatment with antibiotic (MDREC 1229 [2]; [10]) | Antibiotic MIC, Erythromycin (E. coli [3]; erythromycin combined with peptide at 6 μg/ml) | Peptide MIC during treatment with antibiotic (A. baumannii; [14]) | Peptide MIC during treatment with antibiotic (A. baumannii; linezolid 64 μg/ml (Conc./MIC 1/4)) | Peptide MIC during treatment with antibiotic (A. baumannii; vancomycin […] (Conc./MIC 1/8)) | Peptide MIC during treatment with erythromycin (MDRAB 12035 [6]; [14]) | Peptide MIC during treatment with linezolid (MDRAB 12035 [6]; linezolid […] (Conc./MIC 1/4)) | Peptide MIC during treatment with vancomycin (MDRAB 12035 [6]; [10]) | Peptide MIC during treatment with vancomycin (MDRAB 12035 [6]; vancomycin […] (Conc./MIC 1/4)) | Peptide MIC during treatment with vancomycin (MDRAB 12035 [6]; vancomycin […] (Conc./MIC 1/8)) | Erythromycin MIC during combined treatment with peptide (MDRAB 12035 [7]; [19])
higher level than the PapMA-1 peptide: Synergistic effect of antibacterial activity with existing antibiotics compared with PapMA-1 (E. coli [3]; E. coli and MDREC1229)
0.25 mg/L: Antibiotic MIC, Erythromycin (E. coli [3]; erythromycin combined with peptide at 16 μg/ml) | Peptide MIC during treatment with antibiotic (A. baumannii; [10])
>128 mg/L: Antibiotic MIC, Linezolid (E. coli [3]; linezolid combined with peptide at 1 μg/ml) | Antibiotic MIC, Vancomycin (E. coli [3]; vancomycin combined with peptide at 1 μg/ml) | Minimal inhibitory concentration MIC (B. subtilis) | Minimal inhibitory concentration MIC (MRSA 3114) | Minimal inhibitory concentration MIC (MRSA 3126) | Minimal inhibitory concentration MIC (S. epidermidis) | Linezolid MIC during combined treatment with peptide (MDRAB 12035 [7]; [16]) | Vancomycin MIC during combined treatment with peptide (MDRAB 12035 [7]; [16])
16 mg/L: Erythromycin MIC during combined treatment with peptide (MDRAB 12035 [7]; [17]) | Linezolid MIC during combined treatment with peptide (MDRAB 12035 [7]; [19]) | Vancomycin MIC during combined treatment with peptide (MDRAB 12035 [7]; [20])
128 mg/L: Antibiotic MIC, Vancomycin (E. coli [3]; vancomycin combined with peptide at 2 μg/ml) | Linezolid MIC during combined treatment with peptide (MDRAB 12035 [7]; [17]) | Vancomycin MIC during combined treatment with peptide (MDRAB 12035 [7]; [17])
0 mg/L: Peptide MIC (E. coli [1]; with Erythromycin […] (Conc./MIC 1)) | Peptide MIC (E. coli [1]; with Linezolid […] (Conc./MIC 1)) | Peptide MIC (E. coli [1]; with Vancomycin 1024 μg/ml (Conc./MIC 1)) | Peptide MIC during treatment with antibiotic (MDREC 1229 [2]; erythromycin […] (Conc./MIC 1)) | Peptide MIC during treatment with antibiotic (MDREC 1229 [2]; [9]) | Antibiotic MIC, Erythromycin (E. coli [3]; erythromycin combined with peptide at 32 μg/ml) | Antibiotic MIC, Erythromycin (E. coli [3]; erythromycin combined with peptide at 64 μg/ml) | Antibiotic MIC, Linezolid (E. coli [3]; linezolid combined with peptide at 32 μg/ml) | Antibiotic MIC, Linezolid (E. coli [3]; linezolid combined with peptide at 64 μg/ml) | Antibiotic MIC, Vancomycin (E. coli [3]; vancomycin combined with peptide at 32 μg/ml) | Antibiotic MIC, Vancomycin (E. coli [3]; vancomycin combined with peptide at 64 μg/ml) | Peptide MIC during treatment with antibiotic (A. baumannii; [15]) | Peptide MIC during treatment with antibiotic (A. baumannii; linezolid […] (Conc./MIC 1)) | Peptide MIC during treatment with antibiotic (A. baumannii; [11]) | Peptide MIC during treatment with erythromycin (MDRAB 12035 [6]; [15]) | Peptide MIC during treatment with linezolid (MDRAB 12035 [6]; [9]) | Erythromycin MIC during combined treatment with peptide (MDRAB 12035 [7]; [22]) | Linezolid MIC during combined treatment with peptide (MDRAB 12035 [7]; [22]) | Vancomycin MIC during combined treatment with peptide (MDRAB 12035 [7]; [22]) | Erythromycin MIC during combined treatment with peptide (MDRAB 12035 [7]; [23]) | Linezolid MIC during combined treatment with peptide (MDRAB 12035 [7]; [23]) | Vancomycin MIC during combined treatment with peptide (MDRAB 12035 [7]; [23])
64 mg/L: Minimal inhibitory concentration MIC (MDRST 8007) | Minimal inhibitory concentration MIC (P. aeruginosa) | Minimal inhibitory concentration MIC (MDRST 8009) | Antibiotic MIC, Erythromycin (E. coli [3]; erythromycin combined with peptide at 1 μg/ml) | Antibiotic MIC, Linezolid (E. coli [3]; linezolid combined with peptide at 2 μg/ml) | Antibiotic MIC, Vancomycin (E. coli [3]; vancomycin combined with peptide at 4 μg/ml) | Minimal inhibitory concentration MIC (MDRPA 2002) | Minimal inhibitory concentration MIC (MDRPA 2003) | Linezolid MIC during combined treatment with peptide (MDRAB 12035 [7]; [18]) | Vancomycin MIC during combined treatment with peptide (MDRAB 12035 [7]; [18])

From patent US11214594B2, “Antimicrobial peptide having synergistic antibacterial effect with antibiotics on multidrug resistant bacteria, and use thereof” (priority 2016, dated 2022)
